Patent US10695406B2, “Modulation of cellular stress using a B-cell oxidative and/or endoplasmic reticulum stress inhibitor and a targeting agent” (THE UNIVERSITY OF QUEENSLAND, priority 2014, dated 2020)

Key:
MIN6N8 murine β-cells = experiment: ER stress (ERAI reporter of Xbp1-splicing / Xbp1 splicing) in MIN6N8 β-cells; type: cell-based
Description: MIN6N8 cells are maintained in line with standard protocols. Cells are transfected with either the ERAI reporter plasmid (F-XBP1ΔDBD-Venus), or the ATF6-GFP plasmid (ADGENE), using LIPFECTAMINE 2000 according to the manufacturer's instructions.
On induction of ER stress, splicing of […] mRNA by IRE1a results in the translation of Venus, but not an active form of XBP1. Fluorescence was measured (excitation: 485 nm; emission: 520 nm) using the POLARstar Omega plate reader and cells were treated 48 h after transfection. The results are normalized with Gapdh expression as fold of vehicle-treated control (Con) cells.
(§1) Activation of ATF6 was assessed as follows: the area in pixels per square millimeter co-stained ATF6 and DAPI (blue and green), and total ATF6 staining (green) was determined in 5 fields of view for each section (n=6 for each condition) using IMAGEJ software version 1.45s. Data are presented as the percentage of ATF6 and DAPI co-fluorescence to the total ATF6 fluorescence. Phosphorylation of Ser-51 of eiF2 α was determined by an AlphaScreen assay as per the manufacturer's instructions (PERKIN-ELMER). The Griess reagent method was performed according to the manufacturer's instructions (MOLECULAR PROBES) to assess the intracellular levels of nitric oxide. 5-(and -6-)-carboxy-2,7-dichlorofluorescein diacetate (DCFDA) assay was used to determine the intracellular levels of H2O2 as previously described (Sakon et al., 2003). Cells were treated with glucose or recombinant cytokines at the concentrations indicated in the figure legends, or with 5 μM thapsigargin (SIGMA-ALDRICH) or 10 μg/mL tunicamycin (SIGMA-ALDRICH) or 0.1-0.5 mM Palmitate (SIGMA-ALDRICH) for the times indicated in the legends. ROS was […] using the dihydroethidium (DHE) fluorescent cell-permeable probe (SIGMA-ALDRICH). MIN6N8 cells plated at 2×10^6/mL were incubated with 3 μM DHE and subsequently treated with DMSO (control), 50 ng/mL IL-23 for 30 minutes±[…] IL-22 at the same time or 30 minutes prior to IL-23.
To inhibit transcription factors the following specific inhibitors (and concentrations) were used:
MIN6N8 cells were exposed to a panel of cytokines to determine the effect of each cytokine on ER stress. ER stress was measured using the above-described method. Specifically, the cells were exposed to either a 24 hour treatment of any one of […] glucose (hi glucose), 10 μM H2O2, 0.5 mM palmitic acid or 50 ng/mL cytokines; or a 6 hour treatment with 10 μg/mL tunicamycin or 5 μM thapsigargin.
(§2) Experiments to assess ER and/or oxidative stress, and methods of qRT-PCT and/or quantifying gene expression were performed as described for Example 1. Xbp1 splicing is assessed by qRT-PCR, with normalization versus Gapdh, and expression presented as fold of vehicle-treated control cells.

MIN6N8 cells [1] = experiment: ROS and NO (DHE, DCFDA, Griess assay) in MIN6N8 cells; type: cell-based, murine; conditions: for IL-23 induced oxidation of dihydroethidium (DHE): 50 ng/mL
Description: as §1
To determine whether IL-22 was sufficient to prevent the increase in oxidative stress caused by known stressors, for example dihydroethidium (DHE), MIN6N8 cells were exposed to 50 ng/mL IL-23 for 30 minutes±50 ng/mL IL-22 at the same time, or 30 minutes prior to the IL-23 treatment. Superoxide generation was measured using DHE, which fluoresces red and binds DNA after oxidation. Time-lapse imaging (3 frames/min for 30 minutes) was utilized to determine the formation of superoxide (DHE-conversion/fluorescence) in cells after treatment. DAPI fluorescence was captured to visualize nuclei.
The concentration of ROS and NO in MIN6N8 cells treated with 16.6 mM glucose (high glucose), 10 μM H2O2, 0.5 mM palmitic acid or 50 ng/mL cytokines±50 ng/mL IL-22 either at the same time, or 30 minutes prior to the stressor treatment.

MIN6N8 cells [2] = experiment: Oxidative stress gene expression (RT2 Profiler PCR array, qRT-PCR) in MIN6N8 cells; type: cell-based, murine; conditions: non-stressed β-cells, 50 ng/mL
Description: Tissue samples were snap-frozen, and homogenized in TRIZOL using FASTPREP (MP BIOMEDICAL). RNA was isolated using High Pure RNA isolation kit (ROCHE), followed by cDNA synthesis using iScript (BIORAD) containing oligo(dT) and random hexamers. QPCR SYBR Green (INVITROGEN) was used for quantitative PCR using a HT7900 (ABI SYSTEMS). RoX was used as a normalization reference. Results were analyzed using SDS software (version 2.3) (ABI SYSTEMS). Primer efficiencies were determined using cDNA dilutions and primer dilutions for the genes of interest. All the data was normalized against the housekeeping gene, Gapdh, and expressed as a fold difference to the mean of relevant control samples.
cDNA from MIN6N8 cells treated with DMSO or 50 ng/mL IL-22 was compared using the oxidative stress RT^2 Profiler PCR Array (QIAGEN, PAMM-065Z). Data were analyzed using RT^2 Profiler PCR Array data analysis software.
as §2

3T3 adipocytes = experiment: 6-NBDG glucose uptake by 3T3 adipocytes with insulin secreted by islets; type: cell-based; conditions: insulin secreted by islets from HFD mice treated with 100 ng/g
Description: 3T3 cells were differentiated into adipocytes as previously described, and all experiments were carried out on day 8 post differentiation. 1×10^4 cells were seeded in a black 96-well plate and cultured in serum free 2.8 mM glucose media prior to the addition of insulin. Cells were treated for 1 h with 2 ng/mL recombinant insulin or total insulin from islet secretions at 37° C. as described in figure legends. Subsequently, cells were incubated with 6-(N-(7-nitrobenx-2-oxa-1,3-diazol-4-yl)amino)-6-deoxyglucose (6-NBDG) (MOLECULAR PROBES) for 20 min before cells were washed with PBS and glucose uptake was determined using a POLARstar Omega plate reader.

[3] = Clearance of IL-22 and IL-22 fusion proteins from serum; type: in vivo, C57BL/6 mice; conditions: after administration to mice
Description: Targeting to IL-22 to pancreas: Non-obese male C57BL/6 at 6-8 weeks of age. Each IL-22-GLP-1R ligand fusion protein or hIL-22 was administered i.p. at 256 ng/g of IL-22 and the molar equivalents for the individual fusion proteins (n=3 per regimen). IL-22-ScaB1 was administered at […]. Control mice received a PBS control i.p. injection only.
Serum concentrations of IL-22 and the IL-22-GLP-1R ligand fusion proteins were determined using a human IL-22 double-determinant ELISA (Biolegend; 434505) against a standard curve for the individual fusion proteins.

IL-22: interleukin-22; recombinant murine IL-22 (R&D SYSTEMS) in the mouse experiments
UPR activation when ER stress is induced with thapsigargin (MIN6N8 murine β-cells; 5 μM thapsigargin ± IL-22, 6 hours): increases UPR activation | ER stress induced with palmitic acid (MIN6N8 murine β-cells; 0.1-0.5 mM palmitic acid ± IL-22, 24 hours): inhibits ER stress | lowest concentration with efficacy as suppressor of ER stress (MIN6N8 murine β-cells; MIN6 β-cells): around 5 ng/mL | UPR activation by the cytokine alone (MIN6N8 murine β-cells; no stressor): does not appear to activate the UPR | inhibition of ER stress initiated by cytokines or tunicamycin (MIN6N8 murine β-cells; pair-wise combinations of cytokines): inhibit ER stress | IL-23 induced oxidation of dihydroethidium (DHE) (MIN6N8 cells [1]; 30-minute pre-exposure): completely prevented DHE oxidation | IL-23 induced oxidation of dihydroethidium (DHE) (MIN6N8 cells [1]; concomitant exposure): reduced the degree of oxidation and the number of cells affected | basal NO production (MIN6N8 cells [1]; unstressed cells): decreased basal NO production | production/accumulation of ROS and NO (MIN6N8 cells [1]; β-cells exposed to inflammatory cytokines, FFA, tunicamycin or H2O2): represses the production/accumulation of ROS and NO | expression of antioxidant genes Gpx5, Prdx5, Sod2 (also Ptgs1, Ptgs2, Cyba) (MIN6N8 cells [2]): upregulated the antioxidant genes | expression of oxidative stress inducing genes Nos2, Hsp90ab1, Fth1 (MIN6N8 cells [2]): down-regulates three key oxidative stress inducing genes | reduction in adipocyte 6-NBDG uptake vs insulin from islets of normal chow fed mice (3T3 adipocytes): 11% | time to almost complete clearance from serum [3]: ≤ 60 min
